Assays:
hSTING-R232 = target: T1, hSTING-R232 (Homo sapiens, UniProt Q86WV6, H232R); test: THP1-Dual KI-hSTING-R232 reporter assay (IRF pathway, secreted Lucia luciferase); type: cell-based; details: THP1-Dual KI-hSTING-R232 cells, 24 hours; read-out: Reporter assay EC50 (nM) THP-1-R232
T1 construct: host or cells: THP1-Dual KI-hSTING-R232 (from THP1-Dual KO-STING)
Experimental: (§1) The activities of the STING agonists to activate human or mouse STING pathways were evaluated in THP-1-Dual™, THP1-Dual™ KI-hSTING-R232, THP1-Dual™ KI-hSTING-H232 Cells and THP1-Dual™ KI-mSTING Cells. THP-1-Dual™ cells contains hSTING-HAQ haplotype and can be used to evaluate the activity of STING agonists by monitoring the activation of NF-κB pathway and the […] (IFN regulatory factor) pathways. THP1-Dual™ KO-STING cells were generated from THP1-Dual™ cells by stable knockout of the endogenous HAQ STING gene. THP1-Dual™ KI-hSTING-R232 cells, THP1-Dual™ KI-hSTING-H232 cells and THP1-Dual™ KI-mSTING cells were generated by transfecting THP1-Dual™ KO-STING cells with hSTING-R232 or hSTING-H232 or mSTING. Stimulating these reporter cells with a STING agonist activates TRF pathway and induces the production of a secreted Lucia luciferase in the cell culture medium, which can be determined using QUANTI-Luc™ reagent.
(§2) THP-1-Dual™, THP1-Dual™ KI-hSTING-R232, THP1-Dual™ KI-hSTING-H232 and THP1-Dual™ KI-mSTING reporter cells were purchased from Invivogen and maintained in manufacture recommended culture medium with required supplemental antibiotics. On the day of assay, the cells were harvested with Accutase and counted by the Vi-CELL Cell Viability Analyzers. Cells were resuspended in HEK blue detection medium and a total of 10000 cells were seeded in each well of a 384-well flat bottom plate. […] After incubation at 37° C. in a CO2 incubator for 24 hours, 20 μl of cell culture medium per well was transferred into a 384-well white (opaque) plate. 50 μl of QUANTI-Luc™ assay solution was then added to each well and the plate was immediately transferred to an ENVISION® plate reader to measure luminescence (Perkin-Elmer). Relative luminescence readings were converted to fold change of signal using untreated cells as controls. Data was fitted with non-linear regression analysis, using log (agonist) vs. response, variable slope, 4-parameter fit equation using GraphPad Prism. Data was expressed as fold change in signal vs. dose of STING agonist in nM with error bars indicating the Standard Deviation (SD) of the quadruplicates. There result was reported in Table 2 as EC50 (the midpoint of the curve, or concentration at which […] of the maximum effect was observed).

hSTING-HAQ haplotype = target: T2, hSTING-HAQ haplotype (Homo sapiens, UniProt Q86WV6, G230A/H232R/R293Q/R71H); test: THP-1-Dual reporter assay (endogenous hSTING-HAQ); type: cell-based; details: THP-1-Dual cells (hSTING-HAQ), 24 hours
T2 construct: host or cells: THP-1-Dual
Experimental: as §1, §2

hSTING WT = hSTING WT (Homo sapiens, UniProt Q86WV6); test: Surface plasmon resonance, hSTING WT; type: binding; details: read-out: hSTING WT SPR (Kd)
hSTING AQ = hSTING AQ (Homo sapiens, UniProt Q86WV6, G230A/H232R/R293Q); test: Surface plasmon resonance, hSTING AQ; type: binding; details: read-out: hSTING AQ SPR (Kd)
hSTING H232 [1] = target: T3, hSTING H232 (Homo sapiens, UniProt Q86WV6); test: THP1-Dual KI-hSTING-H232 reporter assay (IRF pathway, secreted Lucia luciferase); type: cell-based; parameters: host or cells: THP1-Dual KI-hSTING-H232 (from THP1-Dual KO-STING); details: THP1-Dual KI-hSTING-H232 cells, 24 hours; read-out: Reporter assay EC50 (nM) THP-1-H232
Experimental: as §1, §2

mSTING [2] = target: T4, mSTING (Mus musculus, UniProt Q3TBT3); test: THP1-Dual KI-mSTING reporter assay; type: cell-based; parameters: host or cells: THP1-Dual KI-mSTING (from THP1-Dual KO-STING); details: THP1-Dual KI-mSTING cells, 24 hours; read-out: Reporter assay EC50 (nM) THP-1 mSTING
T4 sequence (Q3TBT3 1-378): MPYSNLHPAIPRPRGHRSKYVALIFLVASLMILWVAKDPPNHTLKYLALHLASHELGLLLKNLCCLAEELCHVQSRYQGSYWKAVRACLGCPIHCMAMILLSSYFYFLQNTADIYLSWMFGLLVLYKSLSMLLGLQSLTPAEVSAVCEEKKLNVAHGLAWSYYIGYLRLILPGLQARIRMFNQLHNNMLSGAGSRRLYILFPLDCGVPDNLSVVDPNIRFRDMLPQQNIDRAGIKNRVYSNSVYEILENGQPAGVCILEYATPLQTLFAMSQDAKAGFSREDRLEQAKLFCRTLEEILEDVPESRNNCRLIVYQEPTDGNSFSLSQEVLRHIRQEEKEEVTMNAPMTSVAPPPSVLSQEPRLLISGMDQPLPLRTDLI
Experimental: as §1
THP-1-Dual™, THP1-Dual™ KI-hSTING-R232, THP1-Dual™ KI-hSTING-H232 and THP1-Dual™ KI-mSTING reporter cells were purchased from Invivogen and maintained in manufacture recommended culture medium with required supplemental antibiotics. On the day of assay, the cells were harvested with Accutase and counted by the Vi-CELL Cell Viability Analyzers. Cells were resuspended in HEK blue detection medium and a total of 10000 cells were seeded in each well of a 384-well flat bottom plate. Serial dilutions of STING agonists free drugs (1:3 serial dilution starting from 5 uM) was added into treatment wells. After incubation at 37° C. in a CO2 incubator for 24 hours, 20 μl of cell culture medium per well was transferred into a 384-well white (opaque) plate. 50 μl of QUANTI-Luc™ assay solution was then added to each well and the plate was immediately transferred to an ENVISION® plate reader to measure luminescence (Perkin-Elmer). Relative luminescence readings were converted to fold change of signal using untreated cells as controls. Data was fitted with non-linear regression analysis, using log (agonist) vs. response, variable slope, 4-parameter fit equation using GraphPad Prism. Data was expressed as fold change in signal vs. dose of STING agonist in nM with error bars indicating the Standard Deviation (SD) of the quadruplicates. There result was reported in Table 2 as EC50 (the midpoint of the curve, or concentration at which […] of the maximum effect was observed).

hSTING H232 [3] = target: T3, hSTING H232; test: Surface plasmon resonance, hSTING H232; type: binding; details: read-out: hSTING H232 SPR (Kd)
mSTING [4] = target: T4, mSTING; test: 293-mSTING reporter assay; type: cell-based

hSTING WT, sequence (Q86WV6 whole entry H232R): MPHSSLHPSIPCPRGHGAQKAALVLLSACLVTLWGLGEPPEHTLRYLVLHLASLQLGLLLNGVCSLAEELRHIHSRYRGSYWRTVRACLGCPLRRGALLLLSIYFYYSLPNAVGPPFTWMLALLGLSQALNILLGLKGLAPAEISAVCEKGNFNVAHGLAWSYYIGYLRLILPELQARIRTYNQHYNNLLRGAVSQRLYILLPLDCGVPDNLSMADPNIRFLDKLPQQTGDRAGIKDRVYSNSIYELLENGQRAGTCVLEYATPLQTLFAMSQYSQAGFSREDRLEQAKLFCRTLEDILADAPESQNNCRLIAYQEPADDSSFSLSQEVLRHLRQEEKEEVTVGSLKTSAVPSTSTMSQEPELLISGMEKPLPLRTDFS
T1 sequence (Q86WV6 whole entry H232R): as above
T3 sequence (Q86WV6 whole entry): as the sequence (Q86WV6 whole entry H232R) above, with R232H counted along it
T2 sequence (Q86WV6 whole entry R71H/G230A/H232R/R293Q): as the sequence (Q86WV6 whole entry H232R) above, with R71H, G230A, R293Q counted along it
hSTING AQ, sequence (Q86WV6 whole entry G230A/H232R/R293Q): as the sequence (Q86WV6 whole entry H232R) above, with G230A, R293Q counted along it

| SMILES | EC50 (hSTING-R232) [nM] | EC50 (hSTING-HAQ haplotype) [nM] | Kd (hSTING WT) [nM] | Kd (hSTING AQ) [nM] | EC50 (hSTING H232 [1]) [nM] | EC50 (mSTING [2]) [nM] | Kd (hSTING H232 [3]) [nM] | EC50 (mSTING [4]) [nM] |
| --- | --- | --- | --- | --- | --- | --- | --- | --- |
| CCn1nc(C)cc1C(=O)Nc1nc2cc(C(N)=O)cnc2n1C/C=C/Cn1c(NC(=O)c2cc(C)nn2CC)nc2cc(C(N)=O)cc(OCCCN3CCC(c4nnc5n4CCNC5)CC3)c21 [Compound 21] | 50 to 150 | > 150 | ≤ 20 | ≤ 20 | 50 to 150 | > 150 | ≤ 20 | – |
| CCn1nc(C)cc1C(=O)Nc1nc2cc(C(N)=O)ccc2n1C/C=C/Cn1c(NC(=O)c2cc(C)nn2CC)nc2cc(C(N)=O)cc(OCCCN3CC4(C3)CN(C(=O)[C@H](CC(C)C)NC(=O)CCCCCO/N=C(\C)c3ccc(C[C@H](N)C(=O)O)cc3)CCO4)c21 [LP-2-3] | 50 to 150 | > 150 | ≤ 20 | ≤ 20 | 50 to 150 | > 150 | ≤ 20 | – |
| CCn1nc(C)cc1C(=O)Nc1nc2cc(C(N)=O)cnc2n1CCCCn1c(NC(=O)c2cc(C)nn2CC)nc2cc(C(N)=O)cc(OCCCN3CCC(c4nnc5n4CCNC5)CC3)c21 [Compound 22] | > 150 | > 150 | ≤ 20 | ≤ 20 | > 150 | > 150 | ≤ 20 | – |
| CCc1nc(C)oc1C(=O)Nc1nc2cc(C(N)=O)cnc2n1C/C=C/Cn1c(NC(=O)c2oc(C)nc2CC)nc2cc(C(N)=O)cc(OCCCO)c21 [Reference Compd B, reference compound] | ≤ 50 | > 150 | ≤ 20 | ≤ 20 | ≤ 50 | ≤ 50 | ≤ 20 | – |
| CCc1nc(C)oc1C(=O)Nc1nc2cc(C(N)=O)cc(OCCCN3CC4(C3)CN(C(=O)[C@@H](N)CC(C)C)CCO4)c2n1C/C=C/Cn1c(NC(=O)c2cc(C)nn2CC)nc2cc(C(N)=O)cc(OC)c21 [Compound 17] | ≤ 50 | ≤ 50 | ≤ 20 | ≤ 20 | ≤ 50 | ≤ 50 | ≤ 20 | – |
| CCc1nc(C)oc1C(=O)Nc1nc2cc(C(N)=O)cc3c2n1C/C=C/Cn1c(NC(=O)c2oc(C)nc2CC)nc2cc(C(N)=O)cc(c21)OCC1(CNC1)CO3 [Compound 25] | ≤ 50 | > 150 | – | – | ≤ 50 | ≤ 50 | – | – |
| CCc1nc(C)oc1C(=O)Nc1nc2cc(C(N)=O)cc(OCCCN3CC4(CNCCO4)C3)c2n1C/C=C/Cn1c(NC(=O)c2cc(C)nn2CC)nc2cc(C(N)=O)cnc21 [Compound 23] | ≤ 50 | 50 to 150 | – | – | ≤ 50 | 50 to 150 | – | – |
| CCn1nc(C)cc1C(=O)Nc1nc2cc(C(N)=O)cc(OC)c2n1C/C=C/Cn1c(NC(=O)c2cn(C)nc2C2CNC2)nc2cc(C(N)=O)cc(OCCCN3CC4(CCCCO4)C3)c21 [Compound 62] | > 150 | > 150 | – | – | > 150 | > 150 | – | – |

More lines, now with the values ahead:

| EC50 (hSTING-R232) [nM] | EC50 (hSTING-HAQ haplotype) [nM] | Kd (hSTING WT) [nM] | Kd (hSTING AQ) [nM] | EC50 (hSTING H232 [1]) [nM] | EC50 (mSTING [2]) [nM] | Kd (hSTING H232 [3]) [nM] | EC50 (mSTING [4]) [nM] | SMILES |
| --- | --- | --- | --- | --- | --- | --- | --- | --- |
| ≤ 50 | ≤ 50 | ≤ 20 | ≤ 20 | ≤ 50 | – | ≤ 20 | 50 to 150 | CCn1nc(C)cc1C(=O)Nc1nc2cc(C(N)=O)cc(OC)c2n1C/C=C/Cn1c(NC(=O)c2cc(C)nn2CC)nc2cc(C(N)=O)cc(OCCCN3CC4(CNCCO4)C3)c21 [Compound 6] |
| > 150 | > 150 | ≥ 20 | ≥ 20 | > 150 | > 150 | ≥ 20 | – | CCn1nc(C)cc1C(=O)Nc1nc2cc(C(N)=O)cc(OC)c2n1C/C=C/Cn1c(N2CCn3nc(C)cc3C2=O)nc2cc(C(N)=O)cc(OCCCN3CC4(CNCCO4)C3)c21 [Compound 5, 1-[(E)-4-[5-Carbamoyl-2-(2-methyl-4-oxo-6,7-dihydropyrazolo[1,5-a]pyrazin-5-yl)-7-[3-(5-oxa-2,8-diazaspiro[3.5]nonan-2-yl)propoxy]benzimidazol-1-yl]but-2-enyl]-2-[(2-ethyl-5-methyl-pyrazole-3-carbonyl)amino]-7-methoxy-benzimidazole-5-carboxamide] |
| ≤ 50 | ≤ 50 | ≤ 20 | ≤ 20 | ≤ 50 | ≤ 50 | ≤ 20 | – | CCn1nc(C)cc1C(=O)Nc1nc2cc(C(N)=O)cc(OC)c2n1C/C=C/Cn1c(NC(=O)c2cc(C)nn2CC)nc2cc(C(N)=O)cc(OCCCN3CC4(C3)CN(C(=O)CCCCCON)CCO4)c21 [LP-6-1] |
| > 150 | > 150 | – | – | > 150 | > 150 | – | – | CCn1nc(C)cc1C(=O)Nc1nc2cc(C(N)=O)cc(OC)c2n1C/C=C/Cn1c(NC(=O)Cc2cnc(C)o2)nc2cc(C(N)=O)cc(OCCCN3CC4(CNCCO4)C3)c21 [Compound 7] |
| > 150 | > 150 | ≥ 20 | ≥ 20 | > 150 | > 150 | ≥ 20 | – | CCn1nc(C)cc1C(=O)Nc1nc2cc(C(N)=O)cc(OC)c2n1C/C=C/Cn1c(NC(=O)Cc2cc(C)nn2C)nc2cc(C(N)=O)cc(OCCCN3CC4(CNCCO4)C3)c21 [Compound 8] |
| ≤ 50 | > 150 | – | – | ≤ 50 | ≤ 50 | – | – | CCn1nc(C)cc1C(=O)Nc1nc2cc(C(N)=O)cc(OC)c2n1C/C=C/Cn1c(NC(=O)c2oc(C)nc2C)nc2cc(C(N)=O)cc(OCCCN3CC4(CNCCO4)C3)c21 [Compound 11] |
